Assay results reported in patent US11219588B2, “Use of polyamines in compositions and methods for inducing or promoting skin darkening and regulating melanogenesis” (Agency for Science, Technology and Research, priority 2016, dated 2022).
Read-outs that look alike come from different tables or passages of the source.

How the values were obtained:
[1] = tested on: NHEM-aLP cells; test: Putrescine/spermidine treatment of melanocytes and melanin quantification; format: cell-based, human
Experimental: 2×10^5 cells were dissolved in 1 M sodium hydroxide solution and incubated at 80° C. for 2 hours. The absorbance of the cell lysates was measured at 405 nm in a microplate well reader.
2×10^5 cells were dissolved in 1M sodium hydroxide solution and incubated at 80° C. for 2 hours. The absorbance of the cell lysates was measured at 405 nm in a microplate well reader.

[2] = tested on: melanogenesis-related genes (TYR, TYRP1, DCT and PMEL) in NHEM-aLP cells; conditions: 2 mM putrescine for 6 days, relative to RPLP0
Experimental: Human epidermal melanocytes from adult donor (Hema-LP) were purchased from Life Technologies. The cells were grown in 254 media with HMGS-2 and calcium chloride supplements in a humidified incubator containing 5% CO2 according to the manufacturer's instruction. For putrescine treatments, the cells were plated at an approximate density of 20,000/cm^2 the day before. Fresh media was added along with the respective drugs reconstituted in water (putrescine was purchased from Sigma Aldrich) to the cell cultures on day 0 and day 3 of experiment.
Total RNA was extracted from the cells using RNAeasy (Qiagen) according to manufacturer's instructions. 500 ng of total RNA was converted to complimentary DNA using RevertAid First Strand cDNA synthesis kit (Thermo Scientifc). It was diluted 1:25, and 4 ul of the diluted mixture was used as a template with specific primers using Luminaris Colour HiGreen Hi ROX master mix (Thermo Fisher Scientific) for qRT-PCR on an ABI PRISM 7900 sequence detection system. […] Expression levels detected by qPCR were normalized with ribosomal protein LP0 or L13A.

[3] = tested on: primary human melanocytes; conditions: long term culture with putrescine
[4] = tested on: ATP13A3, SLC11A8 and Caveolin-1 in melanocytes; conditions: on addition of putrescine
[5] = tested on: melanogenesis related proteins (TYR, TYRP1 and DCT) in NHEM-aLP cells; conditions: putrescine treated vs control, western blotting
Experimental: Human epidermal melanocytes from adult donor (Hema-LP) were purchased from Life Technologies. The cells were grown in 254 media with HMGS-2 and calcium chloride supplements in a humidified incubator containing 5% CO2 according to the manufacturer's instruction. For putrescine treatments, the cells were plated at an approximate density of 20,000/cm^2 the day before. Fresh media was added along with the respective drugs reconstituted in water (putrescine was purchased from Sigma Aldrich) to the cell cultures on day 0 and day 3 of experiment. The cells were lysed in RIPA buffer, and concentration of the cell lysate was determined by Pierce BCA Protein Assay Kit (Thermo Scientific). […] The membrane was blocked with 5% skim milk in TBST (0.1% Tween-20 (Sigma-Aldrich) in 1×TBS (0.1 M NaCl, 0.1 M Tris pH 7.4 in ddH2O; purchased from Biopolis Shared Facility) and incubated overnight at 4° C. with respective primary antibodies against TYR (sc-7833), TYRP1 (sc-10443), DCT (sc-10451) from Santa Cruz Biotechnology Inc and RPLP0 (AB126480) from Abcam at a dilution of 1:1000 in blocking buffer. The samples were then incubated with horseradish peroxidase-labeled anti-rabbit, or anti-goat IgG (Santa Cruz Biotechnology, Inc) at a dilution 1:5000 for 1 hour at 4° C. and immunoreactive bands were detected with enhanced chemiluminescent substrate (Thermo Fisher Scientific).

[6] = tested on: primary human melanocytes; conditions: 3 and 6 days after incubation with putrescine
Description: FIG. 8 is a dot plot showing the viability of cells untreated, treated for 3 days, or treated for 6 days with putrescine.

[7] = tested on: cultured human melanocytes; conditions: melanocytes cultured with putrescine
Experimental: To confirm that cultured human melanocytes do take up putrescine, the polycationic aliphatic amine content was measured in melanocytes cultured with and without putrescine.

[8] = tested on: reconstructed epidermis (keratinocytes, melanocytes and fibroblasts); conditions: 2 mM Putrescine for 14 days, preliminary experiment
Experimental: The reconstructed epidermis (Denova Sciences) has normal human keratinocytes three dimensionally cultured at an air-liquid interface in a chemically defined medium, in the presence of melanocytes and fibroblasts. They were treated with 2 mM Putrescine for 14 days.

[9] = tested on: NHEM-aLP cells; test: MTS proliferation and cytotoxicity colorimetric assay
[10] = tested on: human abdominal skin biopsies
Description: The skin was them imaged, followed by sectioning and staining with Fontana Mason stain which stains for melanin.

[11] = tested on: Human melanocytes
Experimental: (§1) Human keratinocytes and melanocytes were cultured in the presence of increasing concentrations of a polycationic aliphatic amine transport inhibitor, trimer44NMe, or DFMO, and the cell viability was determined by an MTT assay.

[12] = tested on: human primary melanocytes; test: Melanin content of melanocytes, putrescine with and without transport inhibitor; format: cell-based; conditions: putrescine plus trimer44NMe vs putrescine alone
Experimental: To confirm that import of putrescine is required for the pigmentation phenotype observed in melanocytes, human primary melanocytes were cultured with putrescine with and without a polycationic aliphatic amine transport inhibitor (trimer44NMe).

[13] = tested on: Human keratinocytes; test: MTT cell viability assay, keratinocytes; conditions: increasing concentrations (trimer44NMe up to 5 μM)
Experimental: as §1

[14] = tested on: Human melanocytes; test: MTT cell viability assay, melanocytes; conditions: increasing concentrations
Experimental: as §1

[15] = tested on: co-cultured human keratinocytes and melanocytes; test: UV induced pigmentation in co-culture of melanocytes and keratinocytes; format: cell-based; conditions: co-culture under UV induction
Description: On UV induction, keratinocytes signal to melanocytes to increase melanogenesis. This can be modeled through co-culture of human melanocytes and keratinocytes under UV induction.

## NCCCCNCCCN [spermidine, N′-(3-aminopropyl)butane-1,4-diamine]
[1]; 0.05 mM and 0.5 mM spermidine, every 3 days for 6 days
  melanin content of the cells, dose dependence: dose dependant increase
[1]; 0.5 mM spermidine, every 3 days for 6 days, NHEM-aLP cells
  maximum fold change in melanin content: 1.5-2 fold
[1]; spermidine 0.5 mM vs putrescine 2 mM
  concentration for similar melanin increase relative to putrescine (2 mM): 4 times lower

## NCCCCN [putrescine, butane-1,4-diamine]
[2]
  mRNA expression levels of TYR, TYRP1, DCT and PMEL: significant increase
[3]
  melanin content on long term culture: sustained increase in melanin content
[4]
  protein level of Caveolin-1: decreases
  protein levels of polyamine transporters ATP13A3 and SLC11A8: increase
[5]
  protein levels of TYR, TYRP1 and DCT: increased drastically
[6]
  cell viability: no decrease in viability
[7]
  intracellular levels of putrescine vs non-treated cells: dramatically higher
  intracellular levels of spermine: decrease in the levels of spermine
[8]
  pigmentation levels compared to control: increase in pigmentation levels
[1]; 2 mM putrescine, day 6
  cell morphology / dendrites: larger and flatter and displayed an increased number of dendrites
[1]; 2 mM putrescine, every 3 days for 6 days
  visual darkening of the melanocytes: drastic darkening effect
[1]; 2 mM putrescine, every 3 days for 6 days, NHEM-aLP cells
  increase in melanin content vs control: 1.5-2 fold
[9]; 3 days treatment, MTS
  maximum dose up to which NHEM-aLP can survive: 2 mM
[9]; doses between 0.5 mM and 2 mM, 3 days
  effect on proliferation: mild proliferative effect
[10]; incubated ten days
  darkening of the skin: promoted darkening of the skin
[10]; ten days, Fontana Mason stain
  melanin stain within melanocytes and neighboring keratinocytes: increase in melanin stain

## CNCCCCNCCCCNCc1cc(CNCCCCNCCCCNC)cc(CNCCCCNCCCCNC)c1 [trimer44NMe]
[11]
  sensitivity of melanocyte viability: highly sensitive
[12]
  effect on putrescine induced pigmentation (melanin content): blocked the ability of putrescine to promote pigmentation

## NCCCC(N)(C(=O)O)C(F)F (racemic) [DFMO, (RS)-2,5-diamino-2-(difluoromethyl)pentanoic acid]
[13]
  sensitivity of keratinocyte viability: sensitive
[14]
  sensitivity of melanocyte viability: comparatively insensitive
[15]
  UV induced pigmentation (melanin-containing keratinocytes): inhibits UV induced pigmentation
